Reference: ChEMBL document CHEMBL1201862, “PubChem BioAssay data set” (2004)
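Briefly, cells in 96-well plates were exposed to five compound concentrations for 48 h, and endpoints were estimated by linear interpolation. Abbreviation: GI50, concentration required for 50% inhibition of growth.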 Active and inactive are the calls of the source. Cut-off read from the data, not from the text of the source: active = GI50 up to about 1.1 µM and inactive = higher.

How the values were obtained:
Experiment in all cases: inhibition of tumour cell growth, NCI panel, 48 h
[1] = system: HCC 2998
[2] = system: TK-10
[3] = system: A498
[4] = system: NCI-H226
[5] = system: NCI-H23
[6] = system: UO-31
[7] = system: A549
[8] = system: UACC-62
[9] = system: SF-295
[10] = system: HCT-116
[11] = system: OVCAR-3
[12] = system: KM-20L2
[13] = system: LOX IMVI
[14] = system: EKVX
[15] = system: SK-MEL-5
[16] = system: RXF 393
[17] = system: HOP-62

Measured: GI50

O=C(CCC(=O)C(C(=O)c1ccccc1)c1ccccc1)Nc1cccc(C(F)(F)F)c1 (centres undefined)
inactive: [1] > 100 µM | [2] > 100 µM | [3] > 100 µM | [4] > 100 µM | [5] > 100 µM | [6] > 100 µM | [7] > 100 µM | [8] > 100 µM | [9] > 100 µM | [10] > 100 µM | [11] > 100 µM | [12] > 100 µM | [13] > 100 µM | [14] > 100 µM

COCOCc1cc(OCc2ccccc2)c(OC)cc1Br
inactive: [2] > 100 µM | [3] > 100 µM | [5] > 100 µM | [7] > 100 µM | [15] 61.1 µM | [8] 71.9 µM | [9] > 100 µM | [10] > 100 µM | [11] > 100 µM | [12] > 100 µM | [13] 52.8 µM | [16] 47.4 µM | [17] > 100 µM | [14] > 100 µM

COc1ccc(-c2onc(-c3ccc([N+](=O)[O-])cc3)c2C2=NCCN2)cc1
inactive: [1] > 100 µM | [4] 95.1 µM | [5] > 100 µM | [6] 29.6 µM | [7] > 100 µM | [15] 83.6 µM | [8] > 100 µM | [9] 35.2 µM | [10] 36 µM | [11] > 100 µM | [12] > 100 µM | [13] 79.6 µM | [16] 32.3 µM | [17] > 100 µM | [14] > 100 µM

COc1c2c(cc3c1C(=O)Cc1ccc4c(c1CN(C)CC3)OCO4)OCO2
inactive: [1] > 100 µM | [2] > 100 µM | [4] 59.2 µM | [5] > 100 µM | [6] 12.2 µM | [7] > 100 µM | [15] 40.3 µM | [8] > 100 µM | [9] > 100 µM | [10] 52.2 µM | [11] > 100 µM | [12] 38.2 µM | [13] > 100 µM | [16] > 100 µM | [17] > 100 µM | [14] > 100 µM

COc1ccc2c(C(=O)O)cc3ccccc3c2c1OC
inactive: [1] 21.2 µM | [2] 19.1 µM | [3] 18.8 µM | [4] 24.4 µM | [5] 22.2 µM | [6] 17.2 µM | [7] 30 µM | [8] 15.2 µM | [9] 47 µM | [10] 18.6 µM | [11] 16.6 µM | [12] 22.8 µM | [13] 17.6 µM | [16] 15.2 µM | [17] 69.3 µM | [14] 20.1 µM

O=[N+]([O-])C(=C(c1ccccc1)c1ccccc1)[N+](=O)[O-]
inactive: [1] 11.4 µM | [2] 18.6 µM | [3] 14.8 µM | [4] 31.1 µM | [5] 17.4 µM | [6] 22.1 µM | [7] 23.1 µM | [8] 3.79 µM | [9] 13.5 µM | [10] 11.9 µM | [11] 20.7 µM | [12] 17.2 µM | [13] 2.96 µM | [16] 3.69 µM | [17] > 10 µM | [14] > 10 µM

O=C(O)c1cc2sc(C(=O)O)cc2s1
inactive: [2] > 100 µM | [3] > 100 µM | [4] > 100 µM | [5] > 100 µM | [6] > 10 µM | [7] > 100 µM | [15] > 100 µM | [8] > 100 µM | [9] > 100 µM | [10] > 100 µM | [11] > 100 µM | [12] > 100 µM | [13] > 100 µM | [16] > 100 µM | [17] > 100 µM

O=c1oc2ccccc2n1P(=O)(n1c(=O)oc2ccccc21)n1c(=O)oc2ccccc21
inactive: [1] > 100 µM | [2] > 100 µM | [3] > 100 µM | [4] > 100 µM | [5] > 100 µM | [6] > 100 µM | [7] > 100 µM | [8] > 100 µM | [9] > 100 µM | [10] > 100 µM | [11] > 100 µM | [12] > 100 µM | [13] > 100 µM | [16] > 100 µM | [17] > 100 µM | [14] 97.7 µM

C=CCN1CCC23c4c5ccc(O)c4OC2C(=NN=C2CCC4(O)C6Cc7ccc(O)c8c7C4(CCN6CC=C)C2O8)CCC3(O)C1C5 (centres undefined)
inactive: [1] 21.3 µM | [2] 21.6 µM | [3] 20.2 µM | [4] > 100 µM | [5] > 100 µM | [6] > 100 µM | [7] 21.4 µM | [15] 20.4 µM | [8] 21 µM | [9] 20.7 µM | [11] 18.5 µM | [12] 23.3 µM | [13] 20 µM | [17] 21.4 µM | [14] 28.5 µM

Cc1cc2c(=O)c3ccc(Cl)cc3[nH]c2c(C(=O)O)c1C
inactive: [1] > 100 µM | [2] > 100 µM | [4] > 100 µM | [5] > 100 µM | [6] 46.1 µM | [7] > 100 µM | [15] > 100 µM | [8] > 100 µM | [9] > 100 µM | [10] > 100 µM | [11] > 100 µM | [12] > 100 µM | [13] > 100 µM | [16] 47.5 µM | [17] > 100 µM | [14] > 100 µM

CC(C)(C)C(=O)Nc1ccccc1Br
inactive: [1] > 100 µM | [2] > 100 µM | [4] > 100 µM | [6] > 100 µM | [7] > 100 µM | [15] > 100 µM | [8] > 100 µM | [9] > 100 µM | [10] > 100 µM | [11] > 100 µM | [12] > 100 µM | [13] > 100 µM | [16] > 100 µM | [17] > 100 µM | [14] > 100 µM

CCCCN(CCCC)CCCn1cnc2ncccc2c1=O
inactive: [1] > 100 µM | [2] > 100 µM | [4] > 100 µM | [5] > 100 µM | [6] > 100 µM | [7] > 100 µM | [15] 72.6 µM | [8] > 100 µM | [9] > 100 µM | [10] > 100 µM | [11] > 100 µM | [12] > 100 µM | [13] > 100 µM | [16] > 100 µM | [17] > 100 µM | [14] > 100 µM

O=C(CC12C3C4C1C1C2C3C41CC(=O)NO)NO (centres undefined)
inactive: [1] > 100 µM | [2] > 100 µM | [3] 28.8 µM | [4] 34 µM | [5] 78.2 µM | [7] 37.8 µM | [15] 27.4 µM | [8] 37.6 µM | [9] 27.1 µM | [10] 42.4 µM | [11] 34.3 µM | [12] 38.2 µM | [13] 28.9 µM | [17] 40.8 µM | [14] > 100 µM

Cc1ccccc1NC(=O)C(=O)c1c(O)c2ccc(O)cc2oc1=O
inactive: [2] > 100 µM | [3] > 100 µM | [4] > 100 µM | [5] > 100 µM | [6] > 100 µM | [7] > 100 µM | [15] > 100 µM | [8] > 100 µM | [10] > 100 µM | [11] > 100 µM | [12] > 100 µM | [13] > 100 µM | [16] > 100 µM | [17] > 100 µM

CCC(C)CCOC(=O)c1ccc(/N=C\c2ccc(/C=N/c3ccc(C(=O)OCCC(C)CC)cc3)cc2)cc1 (centres undefined)
inactive: [1] > 100 µM | [3] > 100 µM | [4] > 100 µM | [5] > 100 µM | [6] 41.1 µM | [7] > 100 µM | [15] > 100 µM | [8] > 100 µM | [9] > 100 µM | [10] > 100 µM | [11] > 100 µM | [12] > 100 µM | [13] > 100 µM | [16] > 100 µM | [17] > 100 µM | [14] 62.2 µM

CSc1ccc2c(cc1=O)C(NC(=O)c1ccc(OC(C)=O)cc1)CCc1cc(O)c(O)c(O)c1-2 (centres undefined)
inactive: [1] 74.1 µM | [2] 91.2 µM | [3] 57 µM | [4] 20.9 µM | [5] 25.3 µM | [6] 35.6 µM | [7] 33.9 µM | [15] 16 µM | [8] 18.5 µM | [9] 19.1 µM | [10] 17.3 µM | [11] 20.8 µM | [12] 37.5 µM | [17] 26.9 µM | [14] 20.5 µM

CC12CCC(=O)N1c1ccc([N+](=O)[O-])cc1N2 (centres undefined)
inactive: [3] > 100 µM | [4] 42.3 µM | [5] > 100 µM | [6] > 100 µM | [7] > 100 µM | [15] > 100 µM | [8] > 100 µM | [9] > 100 µM | [10] > 100 µM | [11] > 100 µM | [12] > 100 µM | [13] > 100 µM | [16] > 100 µM | [17] > 100 µM | [14] > 100 µM
